# Read-outs that look alike come from different tables or passages of the source.
# Experiments:
# HEKn (EGFR WT) = HEKn (EGFR WT) (Homo sapiens, UniProt P00533); assay: EGFR target modulation in HEKn (EGFR-WT) cell line (phospho-EGFR Y1173 ELISA); assay type: cell-based; details: value outside parentheses
# Outline: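 Primary neonatal human keratinocytes (EGFR WT) were exposed to serially diluted compounds for 3 h, then lysed on ice. Phospho-EGFR Y1173 was measured by chemiluminescent sandwich ELISA using anti-EGFR capture.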
# [1] = target: human EGFR L858R/T790M (NIH/3T3 cells) (Homo sapiens, UniProt P00533, L858R/T790M); assay: EGFR target modulation in engineered NIH/3T3 cell lines (phospho-EGFR Y1068 AlphaLISA), EGFR L858R/T790M; assay type: cell-based; details: engineered NIH/3T3 cells, read-out: NIH3T3 IC50 (μM) EGFR (L858R/T790M)
# Outline: (§1)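 Engineered NIH/3T3 cells expressing EGFR variants treated 3 h at 37 °C with 12-point 1:3 compound series (top stock 10 μM); only WT cells stimulated with 50 ng/ml EGF for 5 min before lysis. Phospho-Y1068 measured by AlphaLISA with total-EGFR antibody; IC50 from non-linear fitting.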
# H3255 (EGFR L858R) = H3255 (EGFR L858R) (Homo sapiens, UniProt P00533, L858R); assay: EGFR target modulation in H3255 cell line (phospho-EGFR Y1173 ELISA); assay type: cell-based
# Outline: (§2)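 3 h compound exposure of cells in 10% FBS/RPMI, 37 °C; lysis on ice 20 min; lysate captured overnight at 4 °C on anti-EGFR-coated plates; anti-rabbit-HRP, chemiluminescence.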
# [2] = target: human EGFR WT (NIH/3T3 cells, EGF-induced) (Homo sapiens, UniProt P00533); assay: EGFR target modulation in engineered NIH/3T3 cell lines (phospho-EGFR Y1068 AlphaLISA), EGFR WT; assay type: cell-based; details: engineered NIH/3T3 cells, read-out: NIH3T3 IC50 (μM) EGFR (WT)
# Outline: as §1
# EGFR(L858R/T790M) = target: T1, EGFR(L858R/T790M) (Homo sapiens, UniProt P00533, L858R/T790M); assay: EGFR biochemical assay (HTRF), IC50 determinations
# T1 construct: purchased from Carna (GST-a.a. 669-1210)
# Outline: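 HTRF kinase reaction with biotin-TK peptide at room temperature, quenched with EDTA at 60 min and detected with PT66K/SAXL after 1 h. Without preincubation, enzyme starts the reaction with compound, ATP and peptide present. With preincubation, compound, enzyme and peptide sit at room temperature for a set time before ATP is added.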
# H1975 (EGFR L858/T790M) = H1975 (EGFR L858/T790M) (Homo sapiens, UniProt P00533, L858R/T790M); assay: EGFR target modulation in H1975 cell line (phospho-EGFR Y1173 ELISA); assay type: cell-based
# Outline: as §2
# HCC827 (Del E746-A750) = HCC827 (Del E746-A750) (Homo sapiens, UniProt P00533, DEL746-750); assay: EGFR target modulation in HCC827 cell line (phospho-EGFR Y1173 ELISA); assay type: cell-based
# Experimental: EGFR Target Modulation in H1975, H3255 and HCC827 Cell Lines Tissue Culture. Cells were maintained in 10% FBS/RPMI supplemented with 100 μg/ml Penicillin/Streptomycin (Hyclone #SH30236.01). […] The cells were allowed to incubate overnight in a 37° C., 5% CO2 humidified tissue culture incubator. […] The serial diluted compounds were transferred to the plate containing cells by using a 50 nl Pin Head device (Perkin Elmer) and the cells were placed back in the incubator for 3 hours. Phospho-EGFR ([…]) Target Modulation Assay. The media was reduced to 20 ul using a Bio-Tek ELx 405 SelectTM plate washer. […] The plates were shaken at 4° C. for 20 minutes. An aliquot of 25 ul from each well was transferred to pEGFR(Y1173) ELISA plates for analysis. Phospho-EGFR ([…]) ELISA. Solid white high-binding ELISA plates (Greiner #781074) were coated with 5 ug/ml anti-EGFR capture antibody (R&D Systems #AF231) overnight in 50 mM carbonate/bicarbonate pH 9.5 buffer. Plates were blocked with 1% BSA (Sigma #A7030) in PBS for 1 hour at room temperature. Wash steps were carried out with a Bio-Tek ELx405 SelectTM using 4 cycles of 100 ul TBS-T (20 mM Tris, 137 mM NaCl, 0.05% Tween-20) per well. […] Lysis was allowed to occur for 20 minutes on ice. A 25 ul aliquot was added to each well of the blocked ELISA plate and incubated overnight at 4° C. with gentle shaking. […] After washing, 1:2,000 anti-rabbit-HRP (Cell Signaling #7074) in 0.2% BSA/TBS-T was added and incubated for 1 hour at room temperature. Chemiluminescent detection was carried out with SuperSignal ELISA Pico substrate (ThermoScientific #37069). Signal was read on EnVision plate reader using built-in UltraLUM setting. Data Analysis. Control cells treated with EGF were set to 100% maximum response. […] With these parameters, the IC50's for each compound in each cell line was calculated using non-linear curve fitting analysis.
# [3] = target: human EGFR L858R (NIH/3T3 cells) (Homo sapiens, UniProt P00533, L858R); assay: EGFR target modulation in engineered NIH/3T3 cell lines (phospho-EGFR Y1068 AlphaLISA), EGFR L858R; assay type: cell-based; details: engineered NIH/3T3 cells, read-out: NIH3T3 IC50 (μM) EGFR (L858R)
# Outline: as §1
# [4] = EGFR (L858R/T790M) with 90 min pre-incubation, read-out: IC50 (μM) Column B
# [5] = EGFR (L858R/T790M) with no pre-incubation, read-out: IC50 (μM) Column A
# Sequence of HCC827 (Del E746-A750) (P00533 with tags, fused parts or gaps DEL746-750): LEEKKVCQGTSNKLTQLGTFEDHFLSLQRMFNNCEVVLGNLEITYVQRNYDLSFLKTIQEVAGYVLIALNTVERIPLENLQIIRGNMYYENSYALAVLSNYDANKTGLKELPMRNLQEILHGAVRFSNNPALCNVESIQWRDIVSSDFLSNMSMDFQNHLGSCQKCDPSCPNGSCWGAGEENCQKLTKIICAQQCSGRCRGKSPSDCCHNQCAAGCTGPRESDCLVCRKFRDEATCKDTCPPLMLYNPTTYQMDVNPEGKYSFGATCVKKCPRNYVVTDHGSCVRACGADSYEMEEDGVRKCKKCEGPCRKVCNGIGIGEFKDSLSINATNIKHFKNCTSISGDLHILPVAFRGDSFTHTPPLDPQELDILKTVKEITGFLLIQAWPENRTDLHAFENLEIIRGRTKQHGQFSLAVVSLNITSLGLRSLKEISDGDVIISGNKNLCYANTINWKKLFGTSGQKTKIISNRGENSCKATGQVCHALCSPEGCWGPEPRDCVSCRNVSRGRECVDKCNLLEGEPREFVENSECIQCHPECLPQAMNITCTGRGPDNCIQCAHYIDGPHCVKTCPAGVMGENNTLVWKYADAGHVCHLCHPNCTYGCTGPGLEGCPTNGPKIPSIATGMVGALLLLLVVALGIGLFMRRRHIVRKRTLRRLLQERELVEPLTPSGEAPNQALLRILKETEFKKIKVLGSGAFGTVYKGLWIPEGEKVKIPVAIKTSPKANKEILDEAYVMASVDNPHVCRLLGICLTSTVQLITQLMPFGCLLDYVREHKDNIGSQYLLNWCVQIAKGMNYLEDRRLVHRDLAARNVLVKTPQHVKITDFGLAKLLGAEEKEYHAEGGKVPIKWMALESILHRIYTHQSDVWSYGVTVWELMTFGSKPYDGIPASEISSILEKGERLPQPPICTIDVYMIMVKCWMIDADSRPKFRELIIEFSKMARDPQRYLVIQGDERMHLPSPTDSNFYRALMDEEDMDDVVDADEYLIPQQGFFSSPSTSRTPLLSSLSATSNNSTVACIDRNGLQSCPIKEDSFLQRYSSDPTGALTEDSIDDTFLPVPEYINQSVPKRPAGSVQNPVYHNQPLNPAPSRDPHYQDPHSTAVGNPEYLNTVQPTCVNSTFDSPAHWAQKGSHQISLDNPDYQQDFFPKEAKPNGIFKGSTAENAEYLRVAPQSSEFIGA
# T1 sequence (P00533 669-1210 T790M/L858R): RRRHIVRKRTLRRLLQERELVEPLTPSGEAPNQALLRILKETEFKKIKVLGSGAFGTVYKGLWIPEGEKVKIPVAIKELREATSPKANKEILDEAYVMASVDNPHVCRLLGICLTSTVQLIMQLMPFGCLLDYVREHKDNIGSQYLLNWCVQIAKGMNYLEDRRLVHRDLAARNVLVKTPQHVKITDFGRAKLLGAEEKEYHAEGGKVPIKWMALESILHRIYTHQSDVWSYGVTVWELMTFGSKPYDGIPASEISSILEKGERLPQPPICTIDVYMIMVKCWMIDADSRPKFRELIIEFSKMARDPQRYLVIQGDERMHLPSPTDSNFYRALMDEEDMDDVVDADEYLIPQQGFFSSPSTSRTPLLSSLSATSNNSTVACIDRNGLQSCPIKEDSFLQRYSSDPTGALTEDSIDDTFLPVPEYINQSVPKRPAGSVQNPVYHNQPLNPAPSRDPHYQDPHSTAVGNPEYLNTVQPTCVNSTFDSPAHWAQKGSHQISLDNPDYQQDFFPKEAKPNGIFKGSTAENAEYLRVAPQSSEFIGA
# Sequence of H1975 (EGFR L858/T790M) (P00533 25-1210 T790M/L858R): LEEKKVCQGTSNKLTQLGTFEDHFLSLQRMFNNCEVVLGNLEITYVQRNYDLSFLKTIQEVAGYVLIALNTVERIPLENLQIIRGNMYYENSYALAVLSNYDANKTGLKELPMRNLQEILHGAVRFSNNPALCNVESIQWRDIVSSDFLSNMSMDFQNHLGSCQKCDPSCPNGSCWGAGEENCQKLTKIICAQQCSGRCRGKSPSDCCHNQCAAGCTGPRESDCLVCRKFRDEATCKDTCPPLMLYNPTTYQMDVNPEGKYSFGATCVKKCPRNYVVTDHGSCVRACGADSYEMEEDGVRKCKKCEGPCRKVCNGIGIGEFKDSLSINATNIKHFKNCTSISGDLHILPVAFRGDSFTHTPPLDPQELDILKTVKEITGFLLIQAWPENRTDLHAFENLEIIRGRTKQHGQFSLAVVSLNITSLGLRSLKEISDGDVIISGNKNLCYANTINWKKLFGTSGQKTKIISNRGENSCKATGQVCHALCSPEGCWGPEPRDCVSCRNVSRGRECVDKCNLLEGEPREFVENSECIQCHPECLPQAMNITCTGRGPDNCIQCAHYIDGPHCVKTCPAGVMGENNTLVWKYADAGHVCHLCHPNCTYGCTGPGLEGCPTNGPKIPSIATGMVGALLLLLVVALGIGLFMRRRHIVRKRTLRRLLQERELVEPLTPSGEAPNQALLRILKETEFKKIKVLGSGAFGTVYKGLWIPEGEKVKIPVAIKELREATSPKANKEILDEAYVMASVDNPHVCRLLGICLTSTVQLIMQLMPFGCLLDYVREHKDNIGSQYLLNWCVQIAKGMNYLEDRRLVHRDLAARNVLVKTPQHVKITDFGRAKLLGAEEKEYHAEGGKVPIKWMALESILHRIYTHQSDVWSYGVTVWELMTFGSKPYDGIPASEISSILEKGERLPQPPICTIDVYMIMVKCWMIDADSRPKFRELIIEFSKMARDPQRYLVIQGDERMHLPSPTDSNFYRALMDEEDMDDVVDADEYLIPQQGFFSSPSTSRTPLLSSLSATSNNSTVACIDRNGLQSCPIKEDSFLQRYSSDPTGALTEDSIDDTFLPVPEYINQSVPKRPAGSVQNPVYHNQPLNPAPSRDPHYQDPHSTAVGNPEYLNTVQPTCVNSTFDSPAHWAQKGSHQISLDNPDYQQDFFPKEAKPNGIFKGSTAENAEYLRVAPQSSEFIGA
# Sequence of human EGFR L858R/T790M (NIH/3T3 cells) (P00533 25-1210 T790M/L858R): as above
Structure (SMILES),IC50 (HEKn (EGFR WT)) [µM],IC50 [1] [µM],IC50 (H3255 (EGFR L858R)) [µM],IC50 [2] [µM],IC50 (EGFR(L858R/T790M); [4]) [µM],IC50 (EGFR(L858R/T790M); [5]) [µM],IC50 (H1975 (EGFR L858/T790M)) [µM],IC50 (HCC827 (Del E746-A750)) [µM],IC50 [3] [µM]
"Cc1cc(C(=O)Nc2nc3cccc(Cl)c3n2[C@@H]2CCCCN(C(=O)/C=C/CN3CCCC3)C2)ccn1 [Example 1, (R,E)-N-(7-chloro-1-(1-(4-(pyrrolidin-1-yl)but-2-enoyl)azepan-3-yl)-1H-benzo[d]imidazol-2-yl)-2-methylisonicotinamide]",0.45,0.004,0.012,0.152,< 0.001,0.007,0.008,0.002,0.004
"Cc1cc(C(=O)Nc2nc3cccc(Cl)c3n2[C@@H]2CCCCN(C(=O)/C=C/CN3CC(F)C3)C2)ccn1 [Example 2, (R,E)-N-(7-chloro-1-(1-(4-(3-fluoroazetidin-1-yl)but-2-enoyl)azepan-3-yl)-1H-benzo[d]imidazol-2-yl)-2-methylisonicotinamide]",0.91,0.011,0.015,0.183,< 0.001,0.01,0.01,< 0.001,0.008
Cc1cc(C(=O)Nc2nc3cccc(Cl)c3n2[C@@H]2CCCCN(C(=O)/C=C/CN3CCC(F)(F)C3)C2)ccn1 [Example 3-3],6.4,0.174,0.32,> 7.6,0.011,0.156,0.249,0.108,0.157
CO[C@@H]1CCN(C/C=C/C(=O)N2CCCC[C@@H](n3c(NC(=O)c4ccnc(C)c4)nc4cccc(Cl)c43)C2)C1 [Example 3-4],0.32,0.005,0.007,0.058,< 0.001,0.005,0.006,< 0.001,0.003
CO[C@H]1CCN(C/C=C/C(=O)N2CCCC[C@@H](n3c(NC(=O)c4ccnc(C)c4)nc4cccc(Cl)c43)C2)C1 [Example 3-5],0.58,0.006,0.012,0.259,< 0.001,0.007,0.008,< 0.001,0.006
Cc1cc(C(=O)Nc2nc3cccc(Cl)c3n2[C@@H]2CCCCN(C(=O)/C=C/CN3CC[C@@H](O)C3)C2)ccn1 [Example 3-6],1.25,0.032,0.022,0.114,< 0.001,0.01,0.025,0.018,0.018
Cc1cc(C(=O)Nc2nc3cccc(Cl)c3n2[C@@H]2CCCCN(C(=O)/C=C/CN3CC(F)(F)C3)C2)ccn1 [Example 3-15],4.5,0.148,0.09,7.3,0.005,0.084,0.086,0.04,0.111
"Cc1cc(C(=O)Nc2nc3cccc(Cl)c3n2[C@@H]2CCCCN(C(=O)/C=C/CN(C)C)C2)cc(C)n1 [Example 6, (R,E)-N-(7-chloro-1-(1-(4-(dimethylamino)but-2-enoyl)azepan-3-yl)-1H-benzo[d]imidazol-2-yl)-2,6-dimethylisonicotinamide]",1.52,0.002,0.034,0.34,< 0.001,0.01,0.016,0.007,0.004
C=CC(=O)N1CCCCC(n2c(NC(=O)c3cccc(C(F)(F)F)c3)nc3cc(C)ccc32)C1 (stereo not drawn) [Example 17-1],0.73,0.011,0.033,> 10,< 0.001,0.012,0.005,0.014,0.081
C=CC(=O)N1CCCC[C@@H](n2c(NC(=O)c3cccc(C(F)(F)F)c3)nc3cccc(C(F)(F)F)c32)C1 [Example 17-12],> 10,0.008,0.147,4.4,0.003,0.064,0.01,0.03,0.052
Cc1cccc2nc(NC(=O)c3ccnc(OC(F)F)c3)n([C@@H]3CCCCN(C(=O)/C=C/CN(C)C)C3)c12 [Example 17-103],0.098,< 0.001,0.002,0.019,< 0.001,< 0.001,0.001,< 0.001,< 0.001
C=CC(=O)N1CCC[C@@H](n2c(NC(=O)c3cccc(C(F)(F)F)c3)nc3cccc(C)c32)C1 [Example 17-106],> 10,0.007,0.083,> 10,0.002,0.038,0.009,0.153,0.124
C=CC(=O)N1CCC[C@@H](n2c(NC(=O)c3cccc(C(F)(F)F)c3)nc3cc(CN4CCOCC4)ccc32)C1 [Example 17-112],> 10,0.006,0.155,> 10,0.003,0.04,0.015,0.135,0.04
C=CC(=O)N1CCCC[C@@H](n2c(NC(=O)c3cc(C)nc(C)c3)nc3cc(CN4CCCC4)cc(C)c32)C1 [Example 17-113],0.265,0.001,0.004,0.081,< 0.001,0.003,0.002,< 0.001,0.001
C=CC(=O)N1CCC[C@@H](n2c(NC(=O)c3cccc(C(F)(F)F)c3)nc3cc(CN4CCCC4)ccc32)C1 [Example 17-117],> 10,0.006,0.29,6.4,0.004,0.036,0.013,0.243,0.05
C=CC(=O)N1CCC[C@@H](n2c(NC(=O)c3cccc(C(F)(F)F)c3)nc3cc(CN(C)C(C)=O)ccc32)C1 [Example 17-119],> 6.9,0.008,0.118,5,0.008,0.062,0.01,0.071,0.051
C=CC(=O)N1CCC[C@@H](n2c(NC(=O)c3cccc(C(F)(F)F)c3)nc3cc(COC)ccc32)C1 [Example 17-122],> 10,0.02,0.39,> 10,< 0.001,0.062,0.016,0.09,0.176

# From patent US9440957B2, “Compounds and compositions for modulating EGFR Activity” (Novartis AG, priority 2012, dated 2016)
